Patent US8076487B2, “Pyridone derivative and herbicide” (Kumiai Chemical Industry Co., Ltd., priority 2006, dated 2011)

How the values were obtained:
Assay in all cases: Test Example 1: herbicidal effect by soil application to paddy field
Format in all cases: in vivo
[1] = system: heartshape false pickerelweed (Monochoria vaginalis (Burm.f.) C.Presl); settings: for herbicidal effect, Monochoria vaginalis (Burm. f.) C. Presl: paddy field soil application, active ingredient 1,000 g per 1 hectare, wettable powder added dropwise to water surface the day after sowing, examined on the 21st day after application
Excerpt: (§1) Test Example 1 Test on Herbicidal Effect by Soil Application to Paddy Field In a 100 cm2 plastic pot, paddy field soil was filled. After puddling and leveling, seeds of early watergrass (Echinochloa oryzicola […] (Monochoria vaginalis ([…] Japanese bulrush (Scirpus juncoides Roxb.) were sown, and water was filled to be flooded to a water depth of 3 cm. […] Then, on the 21st day after the application to the plants grew in a greenhouse, the herbicidal effect was examined in accordance with a standard shown in Table 34. [table]

[2] = system: early watergrass (Echinochloa oryzicola Vasing); settings: for herbicidal effect, Echinochloa oryzicola Vasing: paddy field soil application, active ingredient 1,000 g per 1 hectare, wettable powder added dropwise to water surface the day after sowing, examined on the 21st day after application
Excerpt: as §1

[3] = system: Japanese bulrush (Scirpus juncoides Roxb.); settings: for herbicidal effect, Scirpus juncoides Roxb.: paddy field soil application, active ingredient 1,000 g per 1 hectare, wettable powder added dropwise to water surface the day after sowing, examined on the 21st day after application
Excerpt: as §1

[4] = soil application to paddy field, rated by standard of Table 34

SMILES | herbicidal effect, Monochoria vaginalis (Burm. f.) C. Presl [1] | herbicidal effect, Echinochloa oryzicola Vasing [2] | herbicidal effect, Scirpus juncoides Roxb. [3] | herbicidal effect (index), Monochoria vaginalis (Burm.f.) C.Presl [1, 4] | herbicidal effect (index), Echinochloa oryzicola Vasing [2, 4] | herbicidal effect (index), Scirpus juncoides Roxb. [3, 4]
COc1cccc(Cn2c(C(F)(F)F)ccc(C(=O)c3cnn(C)c3O)c2=O)c1 [IV-103] | 5 (90% or more of herbicidal effect and crop phytotoxicity) | 4 (70 to less than 90% of herbicidal effect and crop phytotoxicity) | 4 (70 to less than 90% of herbicidal effect and crop phytotoxicity) |  |  | 
Cn1c(C(F)(F)F)ccc(C(=O)C2=C(Sc3ccccc3Cl)CCCC2=O)c1=O [II-11] | 5 (90% or more of herbicidal effect and crop phytotoxicity) | 5 (90% or more of herbicidal effect and crop phytotoxicity) | 5 (90% or more of herbicidal effect and crop phytotoxicity) |  |  | 
Cc1cc(C)c(C(=O)Oc2c(C(=O)c3ccc(C(F)(F)F)n(CC4CCCO4)c3=O)cnn2C)c(C)c1 (stereo not drawn) [IV-135] | 5 (90% or more of herbicidal effect and crop phytotoxicity) | 5 (90% or more of herbicidal effect and crop phytotoxicity) | 5 (90% or more of herbicidal effect and crop phytotoxicity) |  |  | 
CSCCCn1c(C(F)(F)F)ccc(C(=O)c2cnn(C)c2O)c1=O [IV-56] | 5 (90% or more of herbicidal effect and crop phytotoxicity) | 5 (90% or more of herbicidal effect and crop phytotoxicity) | 5 (90% or more of herbicidal effect and crop phytotoxicity) |  |  | 
O=C(Nn1c(C(F)(F)F)ccc(C(=O)C2=C(O)CCCC2=O)c1=O)OCc1ccccc1 [I-196] | 5 (90% or more of herbicidal effect and crop phytotoxicity) | 5 (90% or more of herbicidal effect and crop phytotoxicity) | 4 (70 to less than 90% of herbicidal effect and crop phytotoxicity) |  |  | 
CN(C(=O)OCc1ccccc1)n1c(C(F)(F)F)ccc(C(=O)C2=C(O)CCCC2=O)c1=O [I-197] | 5 (90% or more of herbicidal effect and crop phytotoxicity) | 5 (90% or more of herbicidal effect and crop phytotoxicity) | 5 (90% or more of herbicidal effect and crop phytotoxicity) |  |  | 
N#CC(C(=O)c1ccc(C(F)(F)F)n(CC2CCCO2)c1=O)=C(O)C1CC1 (stereo not drawn) [V-26] |  |  |  | 5 (90% or more of herbicidal effect and crop phytotoxicity) | 5 (90% or more of herbicidal effect and crop phytotoxicity) | 4 (70 to less than 90% of herbicidal effect and crop phytotoxicity)
CN(C(=O)OC(C)(C)C)n1c(C(F)(F)F)ccc(C(=O)C2=C(O)CCCC2=O)c1=O [I-194] | 5 (90% or more of herbicidal effect and crop phytotoxicity) | 5 (90% or more of herbicidal effect and crop phytotoxicity) | 5 (90% or more of herbicidal effect and crop phytotoxicity) |  |  | 
O=C1CCCC(O)=C1C(=O)c1ccc(C(F)(F)F)n(CS(=O)(=O)CC(F)(F)F)c1=O [I-64] | 5 (90% or more of herbicidal effect and crop phytotoxicity) | 4 (70 to less than 90% of herbicidal effect and crop phytotoxicity) | 5 (90% or more of herbicidal effect and crop phytotoxicity) |  |  | 
CCCS(=O)(=O)Oc1c(C(=O)c2ccc(C(F)(F)F)n(CC3CCCO3)c2=O)c(C)nn1C (stereo not drawn) [IV-239] | 5 (90% or more of herbicidal effect and crop phytotoxicity) | 5 (90% or more of herbicidal effect and crop phytotoxicity) | 5 (90% or more of herbicidal effect and crop phytotoxicity) |  |  | 
COc1ccc(-n2c(C(F)(F)F)ccc(C(=O)c3cnn(C)c3O)c2=O)c(OC)c1 [IV-76] | 5 (90% or more of herbicidal effect and crop phytotoxicity) | 4 (70 to less than 90% of herbicidal effect and crop phytotoxicity) | 5 (90% or more of herbicidal effect and crop phytotoxicity) |  |  | 
CC(C)(C)OC(=O)Nn1c(C(F)(F)F)ccc(C(=O)C2=C(O)CCCC2=O)c1=O [I-193] | 5 (90% or more of herbicidal effect and crop phytotoxicity) | 5 (90% or more of herbicidal effect and crop phytotoxicity) | 5 (90% or more of herbicidal effect and crop phytotoxicity) |  |  | 
Cn1c(C(F)(F)F)ccc(C(=O)C2=C(O)C(C)(C)CCC2=O)c1=O [II-2] | 5 (90% or more of herbicidal effect and crop phytotoxicity) | 5 (90% or more of herbicidal effect and crop phytotoxicity) | 5 (90% or more of herbicidal effect and crop phytotoxicity) |  |  | 
COc1cccc(-n2c(C(F)(F)F)ccc(C(=O)C3=C(O)CCCC3=O)c2=O)c1 [I-77] | 5 (90% or more of herbicidal effect and crop phytotoxicity) | 5 (90% or more of herbicidal effect and crop phytotoxicity) | 5 (90% or more of herbicidal effect and crop phytotoxicity) |  |  | 
Cc1ccc(C(=O)C2=C(O)CCCC2=O)c(=O)n1-c1ccc(C(F)(F)F)cc1 [I-236] | 5 (90% or more of herbicidal effect and crop phytotoxicity) | 5 (90% or more of herbicidal effect and crop phytotoxicity) | 5 (90% or more of herbicidal effect and crop phytotoxicity) |  |  | 
Cc1cccc(COc2c(C(=O)c3ccc(C(F)(F)F)n(CC4CCCO4)c3=O)cnn2C)n1 (stereo not drawn) [IV-138] | 5 (90% or more of herbicidal effect and crop phytotoxicity) | 5 (90% or more of herbicidal effect and crop phytotoxicity) | 5 (90% or more of herbicidal effect and crop phytotoxicity) |  |  | 
Cc1ccc(S(=O)(=O)Oc2c(C(=O)c3ccc(C(F)(F)F)n(CC4CCCO4)c3=O)c(C)nn2C)cc1 (stereo not drawn) [IV-240] | 5 (90% or more of herbicidal effect and crop phytotoxicity) | 5 (90% or more of herbicidal effect and crop phytotoxicity) | 5 (90% or more of herbicidal effect and crop phytotoxicity) |  |  | 
O=C1CCCC(O)=C1C(=O)c1ccc(C(F)(F)F)n(Cc2ccccc2[N+](=O)[O-])c1=O [I-115] | 5 (90% or more of herbicidal effect and crop phytotoxicity) | 5 (90% or more of herbicidal effect and crop phytotoxicity) | 5 (90% or more of herbicidal effect and crop phytotoxicity) |  |  | 
Cn1ncc(C(=O)c2ccc(C(F)(F)F)n(CC3CCCO3)c2=O)c1OC(=O)c1c(F)cc(F)cc1F (stereo not drawn) [IV-134] | 5 (90% or more of herbicidal effect and crop phytotoxicity) | 5 (90% or more of herbicidal effect and crop phytotoxicity) | 5 (90% or more of herbicidal effect and crop phytotoxicity) |  |  | 
O=C1CCCC(O)=C1C(=O)c1ccc(C(F)(F)F)n(-c2ccc(NS(=O)(=O)C(F)(F)F)cc2)c1=O [I-97] | 5 (90% or more of herbicidal effect and crop phytotoxicity) | 4 (70 to less than 90% of herbicidal effect and crop phytotoxicity) | 4 (70 to less than 90% of herbicidal effect and crop phytotoxicity) |  |  | 
CCCS(=O)(=O)Oc1c(C(=O)c2ccc(C(F)(F)F)n(CC[S+](C)[O-])c2=O)cnn1C (stereo not drawn) [IV-53] | 4 (70 to less than 90% of herbicidal effect and crop phytotoxicity) | 4 (70 to less than 90% of herbicidal effect and crop phytotoxicity) | 4 (70 to less than 90% of herbicidal effect and crop phytotoxicity) |  |  | 
Cn1ncc(C(=O)c2ccc(C(F)(F)F)n(CCCS(C)(=O)=O)c2=O)c1O [IV-60] | 5 (90% or more of herbicidal effect and crop phytotoxicity) | 5 (90% or more of herbicidal effect and crop phytotoxicity) | 5 (90% or more of herbicidal effect and crop phytotoxicity) |  |  | 
Cn1c(C(F)(F)F)ccc(C(=O)C2=C(Sc3c(Cl)cccc3Cl)CCCC2=O)c1=O [II-15] | 5 (90% or more of herbicidal effect and crop phytotoxicity) | 5 (90% or more of herbicidal effect and crop phytotoxicity) | 5 (90% or more of herbicidal effect and crop phytotoxicity) |  |  | 
CCOC(=O)Nn1c(C(F)(F)F)ccc(C(=O)C2=C(O)CCCC2=O)c1=O [I-192] | 5 (90% or more of herbicidal effect and crop phytotoxicity) | 5 (90% or more of herbicidal effect and crop phytotoxicity) | 5 (90% or more of herbicidal effect and crop phytotoxicity) |  |  | 
CCCS(=O)(=O)Oc1c(C(=O)c2ccc(Cl)n(C)c2=O)cnn1C [IV-242] | 4 (70 to less than 90% of herbicidal effect and crop phytotoxicity) | 5 (90% or more of herbicidal effect and crop phytotoxicity) | 5 (90% or more of herbicidal effect and crop phytotoxicity) |  |  | 
